What all share (type): cell-based
Assay [1] has as its target T1, MRGPRX2 (Homo sapiens, UniProt Q96LB1).
T1 sequence (Q96LB1 1-330): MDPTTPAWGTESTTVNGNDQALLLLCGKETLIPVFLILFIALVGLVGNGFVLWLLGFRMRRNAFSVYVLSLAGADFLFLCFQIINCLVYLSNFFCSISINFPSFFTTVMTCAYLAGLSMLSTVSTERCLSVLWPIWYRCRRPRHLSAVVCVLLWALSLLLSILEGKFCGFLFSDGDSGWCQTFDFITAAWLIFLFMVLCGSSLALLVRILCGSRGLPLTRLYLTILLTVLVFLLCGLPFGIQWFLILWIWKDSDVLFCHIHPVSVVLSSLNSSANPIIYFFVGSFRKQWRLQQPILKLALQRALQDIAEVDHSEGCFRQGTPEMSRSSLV
The assay is described as follows: MRGPRX2 FLIPR calcium mobilization assay. Also noted: host or cells: CHO-K1. The settings on record: CHO-K1 cells stably expressing human MRGPRX2; Ca2+ release, agonist Cortistatin-14 at EC80. The method in brief: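 CHO-K1 cells stably expressing human MRGPRX2, loaded with Calcium 6 dye, pre-incubated 30 min at room temperature with test compound in HBSS/20 mM HEPES pH 7.4. Then challenged with Cortistatin-14 at EC80; baseline-adjusted peak fluorescence over 110 s fitted to a Hill equation for IC50.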

The target of assay [2] is T1, MRGPRX2. The assay is described as follows: MRGPRX2 IP1 HTRF assay. Also noted: host or cells: CHO-K1. The settings on record: CHO-K1 cells stably expressing human MRGPRX2; IP1 accumulation, agonist Cortistatin 14 1 μM. For orientation: TR-FRET usually uses a lanthanide donor and a delayed reading to cut background.
The target in assay [3] is T1, MRGPRX2. The assay is described as follows: MRGPRX2 β-Arrestin assay. Also noted: host or cells: PathHunter CHO-K1. The settings on record: PathHunter CHO-K1 MRGPRX2 β-Arrestin cell line; agonist Cortistatin 14 0.25 μM. Put shortly:
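PathHunter CHO-K1 cells expressing ProLink-tagged MRGPRX2 and enzyme-acceptor-tagged β-arrestin were preincubated with serially diluted compound 1 h at 37 °C, then stimulated with 0.25 μM cortistatin 14 (final) for 90 min. β-arrestin recruitment was read by luminescence; IC50 from 3- or 4-parameter Hill fits normalised to DMSO and reference antagonist controls.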

A word on the IC50: it is the concentration at which inhibition is half-maximal.

As for `O=C(NC1CC(O)C1)N1CC(CNc2cc(C(F)(F)F)nc3ccc(Cl)cc23)(n2cc(F)cn2)C1` (stereo not drawn) [Example 106, 3-(((6-Chloro-2-(trifluoromethyl)quinolin-4-yl)amino)methyl)-3-(4-fluoro-1H-pyrazol-1-yl)-N-(3-hydroxycyclobutyl)azetidine-1-carboxamide], the IC50 on MRGPRX2 [1], at MRGPRX2 [2] and on MRGPRX2 [3] was 0.1 to 100 nM each time.
For `NS(=O)(=O)N1CC(CNc2cc(C(F)(F)F)nc3ccc(Br)cc23)(c2ccc(F)cc2)C1` [Example 3, 3-(((6-Bromo-2-(trifluoromethyl)quinolin-4-yl)amino)methyl)-3-(4-fluorophenyl)azetidine-1-sulfonamide], the IC50 on MRGPRX2 [1], at MRGPRX2 [2] and on MRGPRX2 [3] was 0.1 to 100 nM in each case.
Regarding `O=C(NC1CCC1)N1CC(CNc2cc(C(F)(F)F)nc3ccc(Cl)cc23)(n2cc(F)cn2)C1` [Example 107, 3-(((6-Chloro-2-(trifluoromethyl)quinolin-4-yl)amino)methyl)-N-cyclobutyl-3-(4-fluoro-1H-pyrazol-1-yl)azetidine-1-carboxamide], the IC50 on MRGPRX2 [1], on MRGPRX2 [2] and at MRGPRX2 [3] was 0.1 to 100 nM in each case.
Turning to `NS(=O)(=O)N1CC(CNc2cc(C(F)(F)F)nc3ccc(Cl)cc23)(c2ccccc2)C1` [Example 38, 3-(((6-Chloro-2-(trifluoromethyl)quinolin-4-yl)amino)methyl)-3-phenylazetidine-1-sulfonamide], the IC50 on MRGPRX2 [1], on MRGPRX2 [2] and at MRGPRX2 [3] was 0.1 to 100 nM throughout.
Turning to `CNC(=O)N1CCC(CNc2cc(C(F)(F)F)nc3ccc(Cl)cc23)(c2ccc(F)cn2)C1` (stereo not drawn) [Example 49, 3-(((6-Chloro-2-(trifluoromethyl)quinolin-4-yl)amino)methyl)-3-(5-fluoropyridin-2-yl)-N-methylpyrrolidine-1-carboxamide], the IC50 on MRGPRX2 [1], on MRGPRX2 [2] and on MRGPRX2 [3] was 0.1 to 100 nM throughout.
Consider `NS(=O)(=O)N1CC(CNc2cc(C(F)F)nc3ccc(Cl)cc23)(c2ccc(F)cc2)C1` [Example 5, 3-(((6-Chloro-2-(difluoromethyl)quinolin-4-yl)amino)methyl)-3-(4-fluorophenyl)azetidine-1-sulfonamide], for which the IC50 at MRGPRX2 [1], on MRGPRX2 [2] and on MRGPRX2 [3] was 0.1 to 100 nM each time.
In the case of `NS(=O)(=O)N1CC(CNc2cc(C(F)(F)F)nc3ccc(C(F)(F)F)cc23)(c2ccc(F)cc2)C1` [Example 1, 3-(((2,6-Bis(trifluoromethyl)quinolin-4-yl)amino)methyl)-3-(4 fluorophenyl)azetidine-1-sulfonamide], the IC50 on MRGPRX2 [1], at MRGPRX2 [2] and on MRGPRX2 [3] was 0.1 to 100 nM in each case.
In the case of `O=C(NC1CC(F)(F)C1)N1CC(CNc2cc(C(F)(F)F)nc3ccc(Cl)cc23)(n2cc(F)cn2)C1` [Example 22, 3-(((6-Chloro-2-(trifluoromethyl)quinolin-4-yl)amino)methyl)-N-(3,3-difluorocyclobutyl)-3-(4-fluoro-1H-pyrazol-1-yl)azetidine-1-carboxamide], the IC50 at MRGPRX2 [1], at MRGPRX2 [2] and at MRGPRX2 [3] was 0.1 to 100 nM each time.
Take `O=C1CCC(CNc2cc(C(F)(F)F)nc3ccc(Cl)cc23)(c2ccccc2)N1` (stereo not drawn) [Example 45, 5-(((6-Chloro-2-(trifluoromethyl)quinolin-4-yl)amino)methyl)-5-phenylpyrrolidin-2-one]: the IC50 at MRGPRX2 [1], on MRGPRX2 [2] and at MRGPRX2 [3] was 0.1 to 100 nM throughout.
For `O=C1CC(CNc2cc(C(F)(F)F)nc3ccc(Cl)cc23)(c2ccccc2)CN1` (stereo not drawn) [Example 8, 4-(((6-Chloro-2-(trifluoromethyl)quinolin-4-yl)amino)methyl)-4-phenylpyrrolidin-2-one], the IC50 on MRGPRX2 [1], at MRGPRX2 [2] and on MRGPRX2 [3] was 0.1 to 100 nM each time.
As for `CNC(=O)N1CC(CNc2cc(C(F)(F)F)nc3ccc(Cl)cc23)(n2cc(Br)cn2)C1` [Example 99, 3-(4-Bromo-1H-pyrazol-1-yl)-3-(((6-chloro-2-(trifluoromethyl)quinolin-4-yl)amino)methyl)-N-methylazetidine-1-carboxamide], the IC50 at MRGPRX2 [1], on MRGPRX2 [2] and on MRGPRX2 [3] was 0.1 to 100 nM throughout.
As to `NS(=O)(=O)N1CCC(CNc2cc(C(F)(F)F)nc3ccc(Cl)cc23)(c2ccccc2)CC1` [Example 12, 4-(((6-Chloro-2-(trifluoromethyl)quinolin-4-yl)amino)methyl)-4-phenylpiperidine-1-sulfonamide], the IC50 on MRGPRX2 [1], on MRGPRX2 [2] and on MRGPRX2 [3] was 0.1 to 100 nM throughout.
Regarding `CNC(=O)N1CC(CNc2cc(C(F)(F)F)nc3ccc(Cl)cc23)(n2cc(F)cn2)C1` [Example 44, 3-(((6-Chloro-2-(trifluoromethyl)quinolin-4-yl)amino)methyl)-3-(4-fluoro-1H-pyrazol-1-yl)-N-methylazetidine-1-carboxamide], the IC50 on MRGPRX2 [1], at MRGPRX2 [2] and on MRGPRX2 [3] was 0.1 to 100 nM throughout.
For `NC(=O)N1CC(CNc2cc(C(F)(F)F)nc3ccc(Cl)cc23)(n2cc(Br)cn2)C1` [Example 41, 3-(4-Bromo-1H-pyrazol-1-yl)-3-(((6-chloro-2-(trifluoromethyl)quinolin-4-yl)amino)methyl)azetidine-1-carboxamide], the IC50 at MRGPRX2 [1], at MRGPRX2 [2] and at MRGPRX2 [3] was 0.1 to 100 nM each time.
Regarding `Cc1csc(C2(CNc3cc(C(F)(F)F)nc4ccc(Cl)cc34)CN(S(N)(=O)=O)C2)n1` [Example 81, 3-(((6-Chloro-2-(trifluoromethyl)quinolin-4-yl)amino)methyl)-3-(4-methylthiazol-2-yl)azetidine-1-sulfonamide], the values for the IC50 at MRGPRX2 [1], on MRGPRX2 [2] and on MRGPRX2 [3] were 0.1 to 100 nM, 100 to 1000 nM and 0.1 to 100 nM, respectively.
As for `O=C(NC1CC(F)(F)C1)N1CC(CNc2cc(C(F)(F)F)nc3ccc(Cl)cc23)(c2ccc(F)cn2)C1` [Example 19, 3-(((6-Chloro-2-(trifluoromethyl)quinolin-4-yl)amino)methyl)-N-(3,3-difluorocyclobutyl)-3-(5-fluoropyridin-2-yl)azetidine-1-carboxamide], the IC50 on MRGPRX2 [1], at MRGPRX2 [2] and on MRGPRX2 [3] was 0.1 to 100 nM in each case.
With `NC(=O)N1CC(CNc2cc(C(F)(F)F)nc3ccc(Cl)cc23)(n2cc(F)cn2)C1` [Example 28, 3-(((6-Chloro-2-(trifluoromethyl)quinolin-4-yl)amino)methyl)-3-(4-fluoro-1H-pyrazol-1-yl)azetidine-1-carboxamide], the IC50 on MRGPRX2 [1], at MRGPRX2 [2] and on MRGPRX2 [3] was 0.1 to 100 nM throughout.
Consider `NC(=O)N1CC(CNc2cc(C(F)(F)F)nc3cc(F)ccc23)(c2ccc(F)cn2)C1` [Example 59, 3-(((7-Fluoro-2-(trifluoromethyl)quinolin-4-yl)amino)methyl)-3-(5-fluoropyridin-2-yl)azetidine-1-carboxamide], for which the values for the IC50 at MRGPRX2 [1], at MRGPRX2 [2] and on MRGPRX2 [3] were 0.1 to 100 nM, 100 to 1000 nM and 100 to 1000 nM, respectively.

(Values after US20250084063A1 (Incyte Corporation, priority 2023, published 2025).)
